Our source for the IC50 values is patent US10828301B2, “2,4-pyrimidinediamine compounds and their uses” (Rigel Pharmaceuticals, Inc, priority 2002, dated 2020).

Structures can show the parent of a compound that is named as a salt. Where only a bound is given, the exact number is not on record here.

The first test concerns cultured human mast cells (CHMC). The test can be described thus: CHMC low cell density IgE activation: tryptase and LTC4 assays. Format: cell-based. Particulars: Homo sapiens, Mast cell, Low Density CHMC, anti-IgE activation, tryptase readout; read-out: CHMC anti-IgE Tryptase. On the procedure: Pellet CHMC cells (980 rpm, 10 min) and resuspend in pre-warmed MT. Add 65 ul of cells to each 96-well plate. Depending on the degranulation activity for each particular CHMC donor, load 1000-1500 cells/well. Mix four times followed by a 1 hr incubation at 37° C. […] Stimulate cells by adding 25 ul of 6× anti-IgE solution to the appropriate plates. Add 25 ul MT to un-stimulated control wells. Mix twice following addition of the anti-IgE. Incubate at 37° C. for 30 minutes. […] Spin plates at 1000 rpm for 10 min to pellet cells. Transfer 25 ul of supernatant to a 96-well black bottom plate and add 100 ul of freshly diluted tryptase substrate solution to each well. Incubate plates at room temperature for 30 min.
Leukotriene C4 (LTC4) is also quantified using an ELISA kit on appropriately diluted supernatant samples (determined empirically for each donor cell population so that the sample measurement falls within the standard curve) following the supplier's instructions.
On to `O=C(O)c1cc2cc(Nc3ncc(F)c(Nc4cccc(O)c4)n3)ccc2[nH]1` [Compound R926479, N2-(2-Carboxyindol-5-yl)-5-fluoro-N4-(3-hydroxyphenyl)-2,4-pyrimidinediamine], for which the IC50 is > 10 µM.
Still for that read-out and setting: the figure for `Oc1cccc(Nc2ncc(F)c(Nc3ccc4ncccc4c3)n2)c1` [Compound R927019, 5-Fluoro-N2-(3-hydroxyphenyl)-N4-(quinolin-6-yl)-2,4-pyrimidinediamine] is 1.18 µM.
On to `CCOC(=O)C1CCN(C(=O)c2cccc(Nc3nc(Nc4cccc(O)c4)ncc3F)c2)CC1` [Compound R926940, N4-[3-[[4-(Ethoxycarbonyl)piperidino]carbonyl]phenyl]-5-fluoro-N2-(3-hydroxyphenyl)-2,4-pyrimidinediamine], for which the IC50 was 7.75 µM.
`Cc1ccc(CNc2ncc(F)c(Nc3ccc4c(c3)OCCO4)n2)cc1Cl` [Compound R908696, N2-(3-chloro-4-methylbenzyl)-N4-(3,4-ethylenedioxyphenyl)-5-fluoro-2,4-pyrimidinediamine]: the IC50 worked out at 3.55 µM.
As for `Nc1ccc(Nc2ncc(F)c(Nc3ccc(N)cc3)n2)cc1` [Compound R950121, N2,N4-Bis(4-aminophenyl)-5-fluoro-2,4-pyrimidinediamine Hydrogen Chloride Salt], the IC50 was found to be 4.25 µM.
For `CCOC1CCCc2ccc(Nc3nc(Nc4cccc(O)c4)ncc3F)cc21` (stereo not shown) [Compound R926942, N4-(1-Ethoxy-1,2,3,4-tetrahydronaphthalen-7-yl)-5-fluoro-N2-(3-hydroxyphenyl)-2,4-pyrimidinediamine], the IC50 was determined as 4.81 µM.
The same measure, in the same setting: the figure for `Fc1cnc(NCc2ccco2)nc1NCc1ccco1` [Compound R925769, N2,N4-Bis(furfuryl)-5-fluoro-2,4-pyrimidinediamine] is > 10 µM; for `Cc1noc(C)c1Nc1ncc(F)c(Nc2ccc3c(c2)OCCO3)n1` [Compound R926744, N4-(3,4-Ethylenedioxyphenyl)-5-fluoro-N2-(3,5-dimethylisoxazol-4-yl)-2,4-pyrimidinediamine] it is > 10 µM.

Staying with this test, now noted: Homo sapiens, Mast cell, read-out: CHMC anti-IgE Tryptase.
As to `Cc1ccc(Nc2ccnc(Nc3ccc(C)c([N+](=O)[O-])c3)n2)cc1[N+](=O)[O-]` [Compound R950153, N2,N4-Bis(4-methyl-3-nitrophenyl)-2,4-pyrimidinediamine], the IC50 was > 10 µM.

The same test, now with this note: Low Density CHMC, anti-IgE activation, tryptase readout; read-out: CHMC anti-IgE Tryptase.
Regarding `O=C(O)Cc1cccc(Nc2ncc(F)c(Nc3cccc(CC(=O)O)c3)n2)c1` [Compound R935117], the IC50 is > 10 µM.

For another test the test system is unchanged. Briefly: CHMC low cell density ionomycin activation: tryptase assay. In kind it is cell-based. Conditions: Homo sapiens, Mast cell, Low Density CHMC, ionomycin activation, tryptase readout; read-out: CHMC Ionomycin Tryptase.
Regarding `COC(=O)c1cc2cc(Nc3ncc(F)c(Nc4ccc(OC)c(Cl)c4)n3)ccc2o1` [Compound R926950, N4-(3-Chloro-4-methoxyphenyl)-5-fluoro-N2-[2-(methoxycarbonyl)benzofuran-5-yl]-2,4-pyrimidinediamine], the IC50 is > 10 µM.
On to `CCOc1ccc(Nc2ncc(F)c(Nc3ccc(OCC)cc3)n2)cc1` [Compound R070790, N2,N4-bis(4-ethoxyphenyl)-5-fluoro-2,4-pyrimidinediamine], for which the IC50 was > 10 µM.
As for `OCCOc1ccc(Nc2ncc(F)c(Nc3cccc(O)c3)n2)cc1` [Compound R935155, 5-Fluoro-N2-[4-(2-hydroxyethoxy)phenyl]-N4-(3-hydroxyphenyl)-2,4-pyrimidinediamine], the IC50 is > 10 µM.
As for `COC(=O)c1cc(Nc2ncc(F)c(Nc3ccc(OC(F)(F)F)c(C(=O)OC)c3)n2)ccc1OC(F)(F)F` [Compound R950391, N2,N4-Bis(3-methoxycarbonyl-4-trifluoromethoxyphenyl)-5-fluoro-2,4-pyrimidinediamine], the IC50 is > 10 µM.

The test is the same for the next values; noted with them: Low Density CHMC, ionomycin activation, tryptase readout; read-out: CHMC Ionomycin Tryptase.
Regarding `CNC(=O)Cn1ncc2cc(Nc3ncc(F)c(Nc4ccc(OC(C)C)cc4)n3)ccc21` [Compound R935239, 5-Fluoro-N4-(4-isopropoxyphenyl)-N2-[1-(N-methylaminocarbonyl)methyl-indazoline-5-yl]-2,4-pyrimidinediamine], the IC50 was > 10 µM.
On the same count and under the same terms, as for `CNC(=O)CNc1cccc(Nc2ncc(F)c(Nc3cccc(O)c3)n2)c1` [Compound R950218], the figure is > 10 µM.
